Measured values reported in the NIST ThermoML archive (doi:10.1021/acs.jced.7b00900).
± gives the expanded uncertainty stated by the source.

Test: of the first substance listed, at infinite dilution; xn = mol fraction of the nth substance listed
Conditions: 298.15 K; 100 kPa; Liquid; isoperibol calorimeter; x1 = 0

SMILES | partial molar enthalpy [kcal/mol]
CCCCOCCCN [3-butoxy-1-propanamine] + O | -7.294 ± 0.0574
CCOCCCN [3-ethoxy-1-propanamine] + O | -6.582 ± 0.0526
